Consider 5 compounds from patent publication US11572399B2, “Long-acting GIP peptide analogues” (University of Copenhagen, priority 2017, dated 2023).

Structures are written as SMILES. Where two headings read alike, the source gives them in different places. Numbered stars: 1 amine (or outer) side, 2 acyl side, 3 side chain; on linkers, the order of the positions; unused ones are H or OH. Side chains are listed from the residue outwards. Peptide text beside a SMILES is read from it. * marks the point of attachment. C16 diacid = O=C(O)CCCCCCCCCCCCCCC(=O)*; γGlu = O=C(O)[C@H](CCC(=O)[*:2])N[*:1]; Palmitoyl = CCCCCCCCCCCCCCCC(=O)*; βAla = NCCC(=O)O

Data set [1] has as its target T1, human GIP receptor (Homo sapiens, UniProt P48546).
T1 construct: host or cells: COS-7, transient transfection (calcium phosphate), cDNA in pCMV-Script
T1 sequence (P48546 22-466): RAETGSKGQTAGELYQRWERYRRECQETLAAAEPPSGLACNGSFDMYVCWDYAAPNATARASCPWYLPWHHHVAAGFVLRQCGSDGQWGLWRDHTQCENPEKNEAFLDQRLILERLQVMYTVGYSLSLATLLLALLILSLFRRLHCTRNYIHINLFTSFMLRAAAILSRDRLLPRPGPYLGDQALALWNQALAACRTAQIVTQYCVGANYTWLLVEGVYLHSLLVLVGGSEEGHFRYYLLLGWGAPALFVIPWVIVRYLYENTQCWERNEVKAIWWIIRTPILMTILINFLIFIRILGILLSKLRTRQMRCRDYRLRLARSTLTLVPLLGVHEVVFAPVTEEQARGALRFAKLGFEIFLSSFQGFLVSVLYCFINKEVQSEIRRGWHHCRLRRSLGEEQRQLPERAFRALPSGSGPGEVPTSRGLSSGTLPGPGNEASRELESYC
In words: cAMP accumulation assay, antagonism of a GIP-mediated cAMP response (50-80% of max). It counts as cell-based. The settings on record: for IC50: transiently transfected COS-7 cells. Here is the method: The day after, the cells were washed twice with Hepes buffered saline (HBS) buffer and incubated with HBS and 1 mM 3-isobutyl-1-methylxanthine (IBMX) for 30 min at 37° C. […] The HitHunter™ cAMP XS assay (DiscoveRx) was carried out according to the manufacturer's instructions.

Data set [2] has as its target T1, human GIP receptor. In words: cAMP accumulation assay, agonism (ligand alone). The format is cell-based. The following applies: COS-7 cells, Table 1; for Emax: COS-7, intrinsic cAMP activity. A general note: Cyclic AMP is a second messenger, typically raised through Gs and lowered through Gi signalling.
The nature of data set [3]: Elimination half-life (T1/2) estimated in pigs, subcutaneous, RIA. It counts as in vivo. The following applies: pig; for half-life: plasma, sc, pigs, subcutaneous 1-10 nmol/kg. How it is done: LYH/LYD strain pigs or mini-pigs were housed in the animal facility at the Faculty of Health and Medical Sciences.
A pig was subcutaneously administered one of the lipidated GIP(3-30)NH2 analogs (compound AT117) (1-10 nmol/kg, total volume 2-6 mL) after which 10-18 blood samples were collected before and up to 57 hours post subcutaneous administration) from a central venous catheter. The catheter was flushed with saline and heparin between samples. Blood was collected into cold EDTA tubes, centrifuged and plasma was kept at −20° C. pending analyses. When experiments are completed, the animals will be killed.
Concentrations of the lipidated GIP(3-30)NH2 or GIP(5-30)NH2 analogues in blood samples from pigs were analysed by RIA. Analogues' immunoreactivity was determined using antiserum Ab95234, Ab95235, Ab95236, a polyclonal in-house antibody raised in rabbits specific for either the mid region of GIP(1-30)NH2 or amidated C-terminus of GIP(3-30)NH2.

Data set [4] deals with T1, human GIP receptor. Kind of data set: 125I-human GIP competition binding assay, in the presence and absence of 2% HSA.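 For all read-outs here: nonspecific binding taken as radioligand bound to untransfected cells, IC50 obtained from nonlinear regression fits.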 The following applies: for Fold change in affinity, IC50 (plus HSA)/IC50 (minus HSA): presence vs absence of 2% HSA, proxy for albumin binding.
Data set [5] in a line: Solubility of linker analogues. The format is physicochemical. The following applies: read-out: Solubility, obtainable concentration.
The conditions of data set [6]: humans, previously determined; cited from earlier work.
The conditions of data set [7]: pigs, previously showed; cited from earlier work.

One may read the Emax as the maximal effect, on the per cent scale that the assay sets. One may read the EC50 as the concentration that produces a half-maximal response. The term half-life denotes how long it takes for the measured level to halve. As to `CC[C@H](C)[C@H](NC(=O)[C@H](CO)NC(=O)[C@H](Cc1ccc(O)cc1)NC(=O)[C@H](CC(=O)O)NC(=O)[C@H](CO)NC(=O)[C@@H](NC(=O)[C@H](Cc1ccccc1)NC(=O)[C@@H](NC(=O)CNC(=O)[C@@H](N)CCC(=O)O)[C@@H](C)O)[C@@H](C)CC)C(=O)N[C@@H](C)C(=O)N[C@@H](CCSC)C(=O)N[C@@H](CC(=O)O)C(=O)N[C@@H](CCCNC(=N)N)C(=O)N[C@H](C(=O)N[C@@H](CCCCNC(=O)CCCCCCCCCCCCCCC(=O)O)C(=O)N[C@@H](CCC(N)=O)C(=O)N[C@@H](CCC(N)=O)C(=O)N[C@@H](CC(=O)O)C(=O)N[C@@H](Cc1ccccc1)C(=O)N[C@H](C(=O)N[C@@H](CC(N)=O)C(=O)N[C@@H](Cc1c[nH]c2ccccc12)C(=O)N[C@@H](CC(C)C)C(=O)N[C@@H](CC(C)C)C(=O)N[C@@H](C)C(=O)N[C@@H](CCC(N)=O)C(=O)N[C@@H](CCCNC(=N)N)C(N)=O)C(C)C)[C@@H](C)CC` [AT159, [hGIP(3-30)NH2[K16R; H18K; K30R]-C16diacid/18]] (H-EGTFISDYSIAMDRIK(C16 diacid)QQDFVNWLLAQR-NH2; N-terminus assumed), the “cAMP - antagonisme fold (paired)” value in data set [1] (fold vs GIP(3-30)NH2, Table 3b) was found to be 0.1 fold. The IC50 is 6 nM in data set [1] (Table 1 and text, read-out: cAMP antagonism nM (IC50, antagonistic potency)); 25 nM in data set [4] (0.1% casein, no HSA, Table 3b, read-out: Binding logIC50 0.1% casein (converted)); 25 nM in data set [4] (Table 3b, initial data, read-out: Binding IC50); 18 nM in data set [4] (heterologous competition binding, transiently transfected COS-7 cells expressing the human GIP receptor, read-out: Binding). The Emax in data set [2] was 6%. In addition, the EC50 in data set [2] (read-out: cAMP agonism nM (EC50)) turned out to be 2 nM. In addition, in data set [3], the half-life was 6 h. Also, in data set [4] (fold decrease in affinity compared to GIP(3-30)NH2, Table 3b), the “Binding fold (paired)” value is 3 fold. In data set [4], the “Fold change in affinity, IC50 (plus HSA)/IC50 (minus HSA)” value turned out to be 0.8 fold.

`CCCCCCCCCCCCCCCC(=O)N[C@@H](CCC(=O)NCCCC[C@H](NC(=O)[C@@H](NC(=O)[C@H](CCCCN)NC(=O)[C@H](CC(=O)O)NC(=O)[C@H](CCSC)NC(=O)[C@H](C)NC(=O)[C@@H](NC(=O)[C@H](CO)NC(=O)[C@H](Cc1ccc(O)cc1)NC(=O)[C@H](CC(=O)O)NC(=O)[C@H](CO)NC(=O)[C@@H](NC(=O)[C@H](Cc1ccccc1)NC(=O)[C@@H](NC(=O)CNC(=O)[C@@H](N)CCC(=O)O)[C@@H](C)O)[C@@H](C)CC)[C@@H](C)CC)[C@@H](C)CC)C(=O)N[C@@H](CCC(N)=O)C(=O)N[C@@H](CCC(N)=O)C(=O)N[C@@H](CC(=O)O)C(=O)N[C@@H](Cc1ccccc1)C(=O)N[C@H](C(=O)N[C@@H](CC(N)=O)C(=O)N[C@@H](Cc1c[nH]c2ccccc12)C(=O)N[C@@H](CC(C)C)C(=O)N[C@@H](CC(C)C)C(=O)N[C@@H](C)C(=O)N[C@@H](CCC(N)=O)C(=O)N[C@@H](CCCCN)C(N)=O)C(C)C)C(=O)O` [AT164, [hGIP(3-30)NH2[H18K]-C16/18+y-glutamic acid]] (H-EGTFISDYSIAMDKIK([γGlu-Palmitoyl])QQDFVNWLLAQK-NH2; N-terminus assumed): in data set [1] (Table 5), the “Fold change from GIP(3-30)NH2 (increase in potency)” value is recorded as 6.3 fold. For the same compound, the solubility in data set [5] is not below 200 µM.

In the case of `CCCCCCCCCCCCCCCC(=O)NCCC(=O)NCCCC[C@H](NC(=O)[C@@H](NC(=O)[C@H](CCCCN)NC(=O)[C@H](CC(=O)O)NC(=O)[C@H](CCSC)NC(=O)[C@H](C)NC(=O)[C@@H](NC(=O)[C@H](CO)NC(=O)[C@H](Cc1ccc(O)cc1)NC(=O)[C@H](CC(=O)O)NC(=O)[C@H](CO)NC(=O)[C@@H](NC(=O)[C@H](Cc1ccccc1)NC(=O)[C@@H](NC(=O)CNC(=O)[C@@H](N)CCC(=O)O)[C@@H](C)O)[C@@H](C)CC)[C@@H](C)CC)[C@@H](C)CC)C(=O)N[C@@H](CCC(N)=O)C(=O)N[C@@H](CCC(N)=O)C(=O)N[C@@H](CC(=O)O)C(=O)N[C@@H](Cc1ccccc1)C(=O)N[C@H](C(=O)N[C@@H](CC(N)=O)C(=O)N[C@@H](Cc1c[nH]c2ccccc12)C(=O)N[C@@H](CC(C)C)C(=O)N[C@@H](CC(C)C)C(=O)N[C@@H](C)C(=O)N[C@@H](CCC(N)=O)C(=O)N[C@@H](CCCCN)C(N)=O)C(C)C` [AT166, [hGIP(3-30)NH2[H18K]-C16/18+β-alanine]] (H-EGTFISDYSIAMDKIK([βAla-Palmitoyl])QQDFVNWLLAQK-NH2; N-terminus assumed), the “Fold change from GIP(3-30)NH2 (increase in potency)” value in data set [1] (Table 5) amounted to 2.9 fold. Besides, the solubility in data set [5] was not above 63.2 µM.

By Ki is commonly meant the dissociation constant of the complex between target and ligand, obtained from inhibition or displacement. High values mean lower affinity, low ones higher affinity. As to `CC[C@H](C)[C@H](NC(=O)[C@H](CCCCN)NC(=O)[C@H](CC(=O)O)NC(=O)[C@H](CCSC)NC(=O)[C@H](CCCCNC(=O)CCCCCCCCCCCCCCC(=O)O)NC(=O)[C@@H](NC(=O)[C@H](CO)NC(=O)[C@H](Cc1ccc(O)cc1)NC(=O)[C@H](CC(=O)O)NC(=O)[C@H](CO)NC(=O)[C@@H](NC(=O)[C@H](Cc1ccccc1)NC(=O)[C@@H](N)[C@@H](C)O)[C@@H](C)CC)[C@@H](C)CC)C(=O)N[C@@H](Cc1c[nH]cn1)C(=O)N[C@@H](CCC(N)=O)C(=O)N[C@@H](CCC(N)=O)C(=O)N[C@@H](CC(=O)O)C(=O)N[C@@H](Cc1ccccc1)C(=O)N[C@H](C(=O)N[C@@H](CC(N)=O)C(=O)N[C@@H](Cc1c[nH]c2ccccc12)C(=O)N[C@@H](CC(C)C)C(=O)N[C@@H](CC(C)C)C(=O)N[C@@H](C)C(=O)N[C@@H](CCC(N)=O)C(=O)N[C@@H](CCCCN)C(N)=O)C(C)C` [AT175, [hGIP(5-30)NH2[A13K]-C16diacid/13]] (H-TFISDYSIK(C16 diacid)MDKIHQQDFVNWLLAQK-NH2; N-terminus assumed), the “Ability to antagonize the GIP-mediated cAMP response (in words)” value in data set [1] was “highest antagonistic potencies”. The “Fold change of IC50 versus GIP(5-30)NH2” value in data set [1] (fold change of IC50 from GIP(5-30)NH2) worked out at 0.5. This compound yielded an Emax in data set [2] of 0%. The half-life in data set [3] was 6 h. In addition, the “T½” value in data set [3] (subcutaneous) is 6 h. Also, the “Fold change HSA (2%)/Casein (0.1%)” value in data set [4] (IC50 (plus HSA)/IC50 (minus HSA)) was determined as 7.8. This compound gave a Ki in data set [4] (absence of HSA) of 53 nM. Also, the IC50 in data set [4] (binding in 0.1% casein (absence of HSA), log value, read-out: logIC50 0.1% casein (converted)) is 79.4 nM; in data set [4] (binding in presence of 2% HSA, read-out: logIC50 2% HSA (converted)) it was 562 nM. Moreover, in data set [4] (fold change +HSA/−HSA), the “Binding (+/−HSA) Fold” value came to 9.4. The “Fold change in affinity, IC50 (plus HSA)/IC50 (minus HSA)” value in data set [4] came to 7.8 fold.

As for `CC[C@H](C)[C@H](NC(=O)[C@H](CO)NC(=O)[C@H](Cc1ccc(O)cc1)NC(=O)[C@H](CC(=O)O)NC(=O)[C@H](CO)NC(=O)[C@@H](NC(=O)[C@H](Cc1ccccc1)NC(=O)[C@@H](NC(=O)CNC(=O)[C@@H](N)CCC(=O)O)[C@@H](C)O)[C@@H](C)CC)C(=O)N[C@@H](C)C(=O)N[C@@H](CCSC)C(=O)N[C@@H](CC(=O)O)C(=O)N[C@@H](CCCCN)C(=O)N[C@H](C(=O)N[C@@H](Cc1c[nH]cn1)C(=O)N[C@@H](CCC(N)=O)C(=O)N[C@@H](CCC(N)=O)C(=O)N[C@@H](CC(=O)O)C(=O)N[C@@H](Cc1ccccc1)C(=O)N[C@H](C(=O)N[C@@H](CC(N)=O)C(=O)N[C@@H](Cc1c[nH]c2ccccc12)C(=O)N[C@@H](CC(C)C)C(=O)N[C@@H](CC(C)C)C(=O)N[C@@H](C)C(=O)N[C@@H](CCC(N)=O)C(=O)N[C@@H](CCCCN)C(N)=O)C(C)C)[C@@H](C)CC` [hGIP(3-30)NH2, reference compound], the IC50 in data set [1] (cAMP antagonism log, given as log IC50 (negative sign), Table 1) was 63.1 nM; in data set [1] (cAMP antagonism nM (IC50, antagonistic potency), Table 1 and text) it was 65 nM. Also, the “cAMP accumulation logIC50 ± SEM” value in data set [1] (given as log IC50 (negative sign), linker analogues, n=2, Table 5) was −7.19 ± 0.10. Further, the T1/2 in data set [6] and in data set [7] was 7.5 min each time.
